Columns and labels:
Calpain-1 [1] = target: T1, Calpain-1 (Homo sapiens, UniProt P07384); conditions: pan-papain family cysteine protease ABP; cited from earlier work
T1 sequence (P07384 1-714): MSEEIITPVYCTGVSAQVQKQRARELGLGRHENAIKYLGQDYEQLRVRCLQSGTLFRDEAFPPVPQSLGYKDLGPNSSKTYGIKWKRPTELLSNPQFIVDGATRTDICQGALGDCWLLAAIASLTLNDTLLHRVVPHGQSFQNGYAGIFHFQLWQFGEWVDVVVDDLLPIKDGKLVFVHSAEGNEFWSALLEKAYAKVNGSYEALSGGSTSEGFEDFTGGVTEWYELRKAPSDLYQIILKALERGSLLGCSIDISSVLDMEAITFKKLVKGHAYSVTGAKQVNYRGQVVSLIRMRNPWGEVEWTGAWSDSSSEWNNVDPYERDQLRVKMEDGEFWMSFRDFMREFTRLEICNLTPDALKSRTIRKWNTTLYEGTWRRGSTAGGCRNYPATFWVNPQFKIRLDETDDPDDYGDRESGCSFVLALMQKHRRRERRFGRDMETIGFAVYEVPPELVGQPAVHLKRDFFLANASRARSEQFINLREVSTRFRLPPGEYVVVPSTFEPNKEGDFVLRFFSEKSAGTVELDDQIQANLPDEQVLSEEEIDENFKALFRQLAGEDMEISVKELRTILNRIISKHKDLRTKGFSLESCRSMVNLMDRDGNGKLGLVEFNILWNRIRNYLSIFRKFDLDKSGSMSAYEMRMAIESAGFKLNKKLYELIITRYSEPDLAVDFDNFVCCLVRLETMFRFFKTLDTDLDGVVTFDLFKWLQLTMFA
T1 sequence (P04632 1-268 partner): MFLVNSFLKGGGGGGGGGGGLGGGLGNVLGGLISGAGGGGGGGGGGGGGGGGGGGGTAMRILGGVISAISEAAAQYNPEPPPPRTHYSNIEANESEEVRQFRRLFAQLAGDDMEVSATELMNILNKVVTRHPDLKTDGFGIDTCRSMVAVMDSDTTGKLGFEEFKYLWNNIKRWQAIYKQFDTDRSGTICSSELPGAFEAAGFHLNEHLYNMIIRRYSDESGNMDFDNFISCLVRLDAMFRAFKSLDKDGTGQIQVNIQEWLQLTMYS

Cathepsin L = Cathepsin L (Homo sapiens, UniProt P07711); test: Protease fluorescence activity assay, cathepsin L inhibition; format: biochemical; conditions: crosslinked peptide; ratio of Ki values
Calpain-1 [2] = target: T1, Calpain-1; test: Kinetic analysis of calpain-1 inhibition; format: biochemical; conditions: crosslinked peptide; Michaelis-Menten and Lineweaver-Burke analysis

Sequence of Cathepsin L (P07711 114-333, species assumed): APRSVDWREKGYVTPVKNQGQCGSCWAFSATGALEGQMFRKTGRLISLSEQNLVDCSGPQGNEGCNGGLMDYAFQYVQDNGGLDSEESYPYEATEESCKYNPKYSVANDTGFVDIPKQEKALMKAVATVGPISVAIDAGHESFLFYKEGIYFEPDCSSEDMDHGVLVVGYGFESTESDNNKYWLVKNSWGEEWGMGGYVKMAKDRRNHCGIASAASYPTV

Row | Compound | Labeling of calpains (positive control) (Calpain-1 [1]) | Potency against calpain over cathepsin L (Cathepsin L) | Mechanism of calpain-1 inhibition (Calpain-1 [2])
1 | CCOC(=O)[C@H]1O[C@@H]1C(=O)N[C@@H](CC(C)C)C(=O)N[C@@H](Cc1ccc(O)cc1)C(=O)NCCCCCC(=O)N[C@@H](CCCCNC(=O)CCCC[C@@H]1SC[C@@H]2NC(=O)N[C@@H]21)C(N)=O [DCG-04] | known to label calpains |  | 
2 | CC[C@H](C)[C@H](NC(C)=O)C(=O)N1CCC[C@H]1C(=O)N1CCC[C@H]1C(=O)N[C@@H](CCCCN)C(=O)N[C@@H](Cc1ccc(O)cc1)C(=O)N[C@H]1CSCc2cccc(c2)CSC[C@@H](C(N)=O)NC(=O)[C@H](CC(C)C)NC(=O)[C@H](CC(C)C)NC(=O)[C@H](CCC(=O)O)NC1=O [Peptide 3c] |  | about four fold more potent | competitive inhibitor

— article PMC3523126 (Journal of the American Chemical Society, 2012)
